Columns and labels:
[1] = Binding in human plasma; conditions: for Percentage binding, Human plasma, 1 μM / Unbound (%), Human Plasma: 1 μM; for Unbound (%), Human Plasma: mean ± SD, n = 3 (warfarin n = 2)
[2] = in vitro; conditions: mouse, 20% brain homogenate
[3] = Binding in dog plasma
[4] = Metabolite identification in human, mouse, rat and dog liver microsomes; type: in vitro ADME
Protocol: Samples were injected onto a BetaBasic C18 column and eluted with a gradient elution of mobile phase B (0.1% formic acid in ACN) from 5% to 95% over 30 min. For IND24-containing samples, the transitions monitored were 344→226 (parent); 360→226 and 360→242 (monohydroxylation); and 376→242 and 376→258 (dihydroxylation). […] Plasma and brain homogenate samples from FVB mice in single-dose (10 mg/kg) pharmacokinetic studies were similarly scanned to detect potential hydroxylated metabolites.
Metabolites were separated on a Kinetex 100-Å column (2.6 μm, 100×2.1 mm, Phenomenex, Torrance, Calif.) at ambient temperature. […]
The Orbitrap mass analyzer was calibrated according to the manufacturer's directions using a mixture of caffeine, Met-Arg-Phe-Ala (MRFA) peptide and Ultramark 1621. The parent compounds and their metabolites were detected by full scan mass analysis from m/z 150-1000 at a resolving power of 60,000 [at m/z 400, full width at half maximum (FWHM); 1-s acquisition] with data-dependent MS/MS analyses triggered by the most abundant ion. […] The data obtained was analyzed using Xcalibur v2.1 software (ThermoScientific; Waltham Mass.). Four-decimal monoisotopic masses of the parent compounds and their oxidative metabolites calculated using ChemBioDraw Ultra software version 11.0 (CambridgeSoft; Cambridge, Mass.) were used to interpret further the fragment ions.

[5] = in vitro; conditions: FVB, mouse, 20% brain homogenate, pH 7.4, nonbound free fraction in brain, 1 and 10 μM
[6] = CYP phenotyping in human liver microsomes, no inhibitor (negative control, maximum metabolism); type: in vitro ADME
[7] = Binding in rat plasma
[8] = biological target: T1, CYP1A2 (Homo sapiens, UniProt P05177); assay: CYP phenotyping in human liver microsomes, furafylline; type: in vitro ADME; conditions: for CYP Involvement: CYP1A2, NADPH + Furafylline; for % Disappearance / Measured Conc. / Δ % Disappearance: irreversible incubation condition, NADPH + Furafylline
T1 construct: tissue BD Biosciences; host or cells: pooled human liver microsomes
T1 sequence (P05177 1-516): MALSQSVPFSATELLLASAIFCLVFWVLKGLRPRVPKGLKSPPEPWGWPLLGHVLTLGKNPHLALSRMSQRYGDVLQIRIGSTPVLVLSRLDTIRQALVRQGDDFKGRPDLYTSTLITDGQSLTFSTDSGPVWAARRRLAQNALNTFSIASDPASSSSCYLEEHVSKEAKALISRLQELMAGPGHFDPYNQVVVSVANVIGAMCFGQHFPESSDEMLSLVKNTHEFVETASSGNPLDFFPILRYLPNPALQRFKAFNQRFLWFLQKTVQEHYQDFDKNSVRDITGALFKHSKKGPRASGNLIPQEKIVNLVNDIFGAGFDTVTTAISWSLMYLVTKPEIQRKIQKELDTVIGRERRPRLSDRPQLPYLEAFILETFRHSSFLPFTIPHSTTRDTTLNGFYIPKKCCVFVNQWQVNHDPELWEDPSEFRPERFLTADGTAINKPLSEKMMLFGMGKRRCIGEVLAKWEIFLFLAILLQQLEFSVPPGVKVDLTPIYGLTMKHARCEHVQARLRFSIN

[9] = Binding in mouse plasma; conditions: for Percentage binding, Mouse plasma, 1 μM / Unbound (%), Mouse Plasma: 1 μM; for Unbound (%), Mouse Plasma: mean ± SD, n = 3 (warfarin n = 2)
[10] = biological target: CYP2C19 (Homo sapiens, UniProt P33261); conditions: for CYP Involvement: CYP2C19, NADPH + N-3-B; for Δ % Disappearance: reversible incubation condition, NADPH + N-3-B
Chain of CYP2C19 (Homo sapiens, UniProt P33261) (P33261 whole entry): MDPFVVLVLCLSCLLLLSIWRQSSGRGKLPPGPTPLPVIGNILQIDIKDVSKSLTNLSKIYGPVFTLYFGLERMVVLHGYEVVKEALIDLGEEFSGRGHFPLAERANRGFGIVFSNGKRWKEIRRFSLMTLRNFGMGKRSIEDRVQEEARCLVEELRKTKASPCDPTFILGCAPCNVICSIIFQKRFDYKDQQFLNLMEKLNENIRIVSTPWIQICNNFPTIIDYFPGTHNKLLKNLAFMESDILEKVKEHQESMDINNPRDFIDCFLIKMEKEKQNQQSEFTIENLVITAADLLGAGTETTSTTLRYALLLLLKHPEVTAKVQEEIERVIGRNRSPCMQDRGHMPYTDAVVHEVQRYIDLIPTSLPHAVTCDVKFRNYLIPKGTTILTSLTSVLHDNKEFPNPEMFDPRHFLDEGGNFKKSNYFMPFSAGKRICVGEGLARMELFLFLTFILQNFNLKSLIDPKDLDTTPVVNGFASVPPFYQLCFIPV

[11] = system: CYP2C19; conditions: reversible incubation condition, NADPH + N-3-B
[12] = irreversible incubation condition, maximum metabolism, NADPH/No Inhibitor
[13] = irreversible incubation condition, negative control, No NADPH/No Inhibitor
[14] = reversible incubation condition, maximum metabolism, NADPH/No Inhibitor
[15] = reversible incubation condition, negative control, No NADPH/No Inhibitor

Structure (SMILES)	Percentage binding, Human plasma, 1 μM [1] [%]	Unbound (%), Human Plasma [1] [%]	Percentage binding, Human plasma, 10 μM [1] [%]	fraction unbound [2]	Percentage binding, Dog plasma, 1 μM [3] [%]	Percentage binding, Dog plasma, 10 μM [3] [%]	major metabolites [4]	fraction unbound at 4 h [5]	% Disappearance [6, 12]	Measured Conc. [6, 12] [µM]	Δ % Disappearance [6, 12] [%]	Measured Conc. [6, 13] [µM]	% Disappearance [6, 14] [%]	Measured Conc. [6, 14] [µM]	Δ % Disappearance [6, 14] [%]	% Disappearance [6, 15] [%]	Measured Conc. [6, 15] [µM]	Percentage binding, Rat plasma, 1 μM [7] [%]	Percentage binding, Rat plasma, 10 μM [7] [%]	CYP Involvement [8]	other results
Cc1cccc(Nc2nc(-c3ccc(-c4ccccc4)cc3)cs2)n1 [IND24, (4-Biphenyl-4-yl-thiazol-2-yl)-(6-methyl-pyridin-2-yl)-amine]	95.1 ± 1.03	4.91 ± 1.03	95.4 ± 1.17	0.07 to 0.08	95.1 ± 1.38	95.0 ± 0.32	ring hydroxylation	0.06 to 0.09	0 (−18) %	0.733	0	0.622	0	0.655	0	0	0.654	93.4 ± 2.13	94.0 ± 1.04	Unlikely (unlikely for values <5)	% Disappearance [8]: 0 (−23) %; Measured Conc. [8]: 0.766 µM; Δ % Disappearance [8]: 0%; Percentage binding, Mouse plasma, 1 μM [9]: 93.4 ± 1.55%; Unbound (%), Mouse Plasma [9]: 6.63 ± 1.55%; Percentage binding, Mouse plasma, 10 μM [9]: 95.8 ± 0.14%; CYP Involvement [10]: Unlikely (unlikely for values <5); Δ % Disappearance [10]: 0 (−18) %; % Disappearance [11]: 18%; Measured Conc. [11]: 0.537 µM
Cc1ccnc(Nc2nc(-c3ccc(-c4ccccn4)s3)cs2)c1 [IND81, (4-Methyl-pyridin-2-yl)-[4-(5-pyridin-2-yl-thiophen-2-yl)-thiazol-2-yl]-amine]	94.2 ± 3.21	5.78 ± 3.21	95.2 ± 0.86	0.09	94.4 ± 1.88	94.7 ± 1.03	ring hydroxylation	0.06 to 0.09	84%	0.143	0	0.899	66	0.226	0	0	0.664	94.2 ± 0.48	95.5 ± 0.66	Unlikely (unlikely for values <5)	% Disappearance [6, 13]: 0%; % Disappearance [8]: 41%; Measured Conc. [8]: 0.534 µM; Δ % Disappearance [8]: 43%; Percentage binding, Mouse plasma, 1 μM [9]: 93.5 ± 1.10%; Unbound (%), Mouse Plasma [9]: 6.48 ± 1.10%; Percentage binding, Mouse plasma, 10 μM [9]: 96.0 ± 0.04%; CYP Involvement [10]: Possible (possible for values 5-10); Δ % Disappearance [10]: 8.5%; % Disappearance [11]: 57%; Measured Conc. [11]: 0.283 µM

Reference: patent US20140329863A1 (priority 2011, published 2014)
